Reference: patent US9676793B2, “Co-crystals of 5-amino-2-oxothiazolo[4,5-d]pyrimidin-3(2H)-yl-5-hydroxymethyl tetrahydrofuran-3-yl acetate and methods for preparing and using the same” (Hoffmann-La Roche Inc., priority 2014, dated 2017)
Like-named read-outs stand apart in the source and are kept apart here.

System: HBV
Test: microbe, parasite or virus in culture
Protocol: Direct inhibition of viral replication was evaluated by monitoring the levels of secreted HBV DNA and the levels of HBV surface antigen (HBsAg) in cultures containing HBV infected HepaRG cells.
After three days incubation, the combined medium was replaced with differentiation medium and the cells were maintained in the differentiation medium for an additional 2 to 4 weeks. The differentiation medium was renewed every 2 to 3 days throughout the incubation period. Differentiated HepaRG cells (HepaRGd) display hepatocyte-like cell islands surrounded by monolayer of biliary-like cells. Prior to HBV infection and compound treatment, HepaRGd cells were seeded into collagen I coated 96-well plates (Gibco, Cat# A11428-03) at 50,000 to 60,000 cells per well. Cells were allowed to recover their differentiated phenotype in 96-well plates for at least 1 week after plating prior to HBV infection.
HBV inoculum was collected from HepG2.2.15 cultured cells, a cell line that supports HBV (genotype D, strain ayw) replication and virion secretion as disclosed in Sells M A., et al., PNAS, 84(4): 1005-1009. HepG2.2.15 cells were maintained in DMEM+GlutaMAX-I (Invitrogen) containing 1× Pen/Strep (Invitrogen), 10% FBS, and 0.25 mg/ml G-418 (Invitrogen) using hyperflasks (Corning) pre-coated with collagen I (BD Biosciences). Upon reaching confluency, HepG2.2.15 culture media was replaced with DMEM+GlutaMAX-I containing 1× Pen-Strep, 2.5% FBS, and 1% DMSO for 3 days and then replaced with DMEM+GlutaMAX-I containing 1× Pen-Strep and 1% DMSO. The 1% DMSO containing media was collected every 3 to 4 days over a two week period and HBV infectious virions and subviral particles were pelleted by ultracentrifugation through a 20% sucrose cushion in a Ti 45 Beckman rotor at 45,000 rpm for 3 hours at 4° C. The pellets were resuspended in WEM at a concentration of 10^8-10^9 genome equivalents (GE) per ml, determined by real time PCR as described below using a genotype D HBV containing plasmid DNA as an internal standard. To evaluate the infectivity of the inoculum, HepaRGd cells in 96-well plates were infected in differentiation medium containing 50 to 200 GE/cell and 4% PEG 8000 (PolyEthylene Glycol 8000, Sigma, Cat# P5413-500G) for 16 hr at 37° C. At the end of the infection, HBV inoculum was removed and cells were washed 3 times with differentiation medium. Differentiation medium was replenished every 2 to 3 days and HBV replication was monitored by measuring secreted HBV DNA, hepatitis B surface (HBsAg) and/or e (HBeAg) antigens.
HBsAg was detected from 50 μL of HBV infected HepaRG supernatants using the HBsAg chemiluminescence immunoassay (CLIA) kit following instructions as recommended by the manufacturer (Autobio Diagnostics Co., Zhengzhou, China). HBV DNA was extracted from 50 μL of HBV infected HepaRGd supernatants using the MagNA Pure 96 DNA and Viral NA Small Volume Kit (Roche, Cat#05 467 497 001). […] All PCR reactions were performed using the ViiA7 Real Time PCR system (Life Technologies).
Both direct and indirect inhibitory activity of HBV replication was measured. […] Aliquots of these reagents were added to independent wells of a 96-well culture plate containing HBV infected HepaRGd cells on day 4 post infection. The final concentration of DMSO in each well was 2%. The HepaRGd cells used in the inhibition study were maintained in differentiation media containing 2% DMSO.

Nc1nc2c(sc(=O)n2[C@@H]2O[C@H](CO)C[C@H]2O)c(=O)[nH]1 [R06871765]
EC50 (Hepatitis B virus, 168 h, read-out: EC50 (HBV DNA or HBsAg)): > 200 µM | CC50 (Hepatitis B virus, read-out: EC/CC50 (μM), HBV DNA): > 200 µM | CC50 (Hepatitis B virus, read-out: EC/CC50 (μM), HBsAg): > 200 µM | inhibition at 0.82 µM (Hepatitis B virus, read-out: HBV DNA (% inhibition), 0.82 μM, EXP ID 10/15/2012 AL): -1.24% | inhibition at 0.82 µM (Hepatitis B virus, read-out: HBV DNA (% inhibition), 0.82 μM, EXP ID 11/1/2012): 12.2% | inhibition at 2.47 µM (Hepatitis B virus, read-out: HBV DNA (% inhibition), 2.47 μM, EXP ID 10/15/2012 AL): -16% | inhibition at 2.47 µM (Hepatitis B virus, read-out: HBV DNA (% inhibition), 2.47 μM, EXP ID 11/1/2012): -0.77% | inhibition at 7.41 µM (Hepatitis B virus, read-out: HBV DNA (% inhibition), 7.41 μM, EXP ID 10/15/2012 AL): -17.4% | inhibition at 7.41 µM (Hepatitis B virus, read-out: HBV DNA (% inhibition), 7.41 μM, EXP ID 11/1/2012): -23.5% | inhibition at 22.22 µM (Hepatitis B virus, read-out: HBV DNA (% inhibition), 22.22 μM, EXP ID 10/15/2012 AL): 4.96% | inhibition at 22.22 µM (Hepatitis B virus, read-out: HBV DNA (% inhibition), 22.22 μM, EXP ID 11/1/2012): 5.69% | inhibition at 66.67 µM (Hepatitis B virus, read-out: HBV DNA (% inhibition), 66.67 μM, EXP ID 10/15/2012 AL): -0.65% | inhibition at 66.67 µM (Hepatitis B virus, read-out: HBV DNA (% inhibition), 66.67 μM, EXP ID 11/1/2012): 21.1% | inhibition at 200 µM (Hepatitis B virus, read-out: HBV DNA (% inhibition), 200 μM, EXP ID 10/15/2012 AL): 12.2% | inhibition at 200 µM (Hepatitis B virus, read-out: HBV DNA (% inhibition), 200 μM, EXP ID 11/1/2012): 3.11% | inhibition at 0.82 µM (Hepatitis B virus, read-out: HBsAg (% inhibition), 0.82 μM, EXP ID 10/15/2012 AL): 10.5% | inhibition at 0.82 µM (Hepatitis B virus, read-out: HBsAg (% inhibition), 0.82 μM, EXP ID 10/15/2012 VL): 14.7% | inhibition at 0.82 µM (Hepatitis B virus, read-out: HBsAg (% inhibition), 0.82 μM, EXP ID 11/1/2012): 14.8% | inhibition at 2.47 µM (Hepatitis B virus, read-out: HBsAg (% inhibition), 2.47 μM, EXP ID 10/15/2012 AL): -4.7% | inhibition at 2.47 µM (Hepatitis B virus, read-out: HBsAg (% inhibition), 2.47 μM, EXP ID 10/15/2012 VL): 11.8% | inhibition at 2.47 µM (Hepatitis B virus, read-out: HBsAg (% inhibition), 2.47 μM, EXP ID 11/1/2012): 14.7% | inhibition at 7.41 µM (Hepatitis B virus, read-out: HBsAg (% inhibition), 7.41 μM, EXP ID 10/15/2012 AL): -11.7% | inhibition at 7.41 µM (Hepatitis B virus, read-out: HBsAg (% inhibition), 7.41 μM, EXP ID 10/15/2012 VL): 3.92% | inhibition at 7.41 µM (Hepatitis B virus, read-out: HBsAg (% inhibition), 7.41 μM, EXP ID 11/1/2012): 1.81% | inhibition at 22.22 µM (Hepatitis B virus, read-out: HBsAg (% inhibition), 22.22 μM, EXP ID 10/15/2012 AL): 0.44% | inhibition at 22.22 µM (Hepatitis B virus, read-out: HBsAg (% inhibition), 22.22 μM, EXP ID 10/15/2012 VL): 3.98% | inhibition at 22.22 µM (Hepatitis B virus, read-out: HBsAg (% inhibition), 22.22 μM, EXP ID 11/1/2012): 0.66% | inhibition at 66.67 µM (Hepatitis B virus, read-out: HBsAg (% inhibition), 66.67 μM, EXP ID 10/15/2012 AL): -2.13% | inhibition at 66.67 µM (Hepatitis B virus, read-out: HBsAg (% inhibition), 66.67 μM, EXP ID 10/15/2012 VL): 14.5% | inhibition at 66.67 µM (Hepatitis B virus, read-out: HBsAg (% inhibition), 66.67 μM, EXP ID 11/1/2012): 5.02% | inhibition at 200 µM (Hepatitis B virus, read-out: HBsAg (% inhibition), 200 μM, EXP ID 10/15/2012 AL): 2.48% | inhibition at 200 µM (Hepatitis B virus, read-out: HBsAg (% inhibition), 200 μM, EXP ID 10/15/2012 VL): 4.25% | inhibition at 200 µM (Hepatitis B virus, read-out: HBsAg (% inhibition), 200 μM, EXP ID 11/1/2012): 16% | direct inhibition of HBV viral replication (cultured HepaRG cells): did not exert any direct anti-HBV effect | CC50 (read-out: EC/CC50 (μM), HBV DNA, EXP ID 11/1/2012): > 200 µM | CC50 (read-out: EC/CC50 (μM), HBsAg, EXP ID 10/15/2012 VL): > 200 µM | CC50 (read-out: EC/CC50 (μM), HBsAg, EXP ID 11/1/2012): > 200 µM
